# Assays:
# human spermatozoa [1] = assay: Nicotinamide dinucleotide-induced superoxide generation, lucigenin-dependent chemiluminescence; format: cell-based
# Text: (§1) ROS generation was monitored by luminometry employing the chemiluminescence probes lucigenin and luminol. Lucigenin is sensitive to the presence of superoxide anion and was used to monitor the free radical responses to NAD(P)H. Luminol, when used in conjunction with horseradish peroxidase (HRP; Sigma Type Vl, 288 U/mg), detects mainly hydrogen peroxide (Aitken et al., 1992) and was used to monitor the responses of spermatozoa to PMA (phorbol 12-myristate, 13-acetate), an activator of protein kinase C. NAD(P)H could not be used with the luminol-peroxidase system because of the generation of high background signals, presumably due to the oxidase reactions of HRP. Photon emission was monitored at 37° C. using the Bermold 9505B luminometer (Berthold, Wilbad, Germany) featuring 6 electronically compensated, peltier cooled, photomultipliers and the results expressed as counts/minute. For both of the probes used, 400 μl of spermatozoa, at a concentration of 10×10^6/ml, were placed in a 3 ml plastic, flat-bottomed plastic tube. For luminol-based reactions, the spermatozoa were suspended in BWW supplemented with Albuminar, but when lucigenin was used the Albuminar was replaced with 1 mg/ml polyvinyl alcohol. A 4 μl aliquot of a 25 mM stock solution of either luminol or lucigenin m-dimethyl sulphoxide (DMSO), was then added to the cell suspension, resulting in a final probe concentration of 250 μM. For the measurement of hydrogen peroxide generation by intact cells, luminol-dependent chemiluminescence was enhanced by addition of 8 μl of HRP, freshly prepared at a concentration of 2 mg/ml in PBS, to give a final HRP concentration of 11.52 U/ml. The luminometer results were recorded as continuous traces and as integrated photon counts over a fixed period of time (5 min).
# The ability of human spermatozoa to generate superoxide anion in response to NADPH was monitored by lucigenin-dependent chemiluminescence and compared with its non-phosphorylated and non-reduced counterparts, i.e. NADH, NADP^+ and NAD^+. In addition, the stimulatory properties of an isomer of NADPH, usually non-active in reductive biosynthesis, were examined. All pyridine nucleotides were made up to the required concentration in PBS immediately prior to use. Stock solutions of the nucleotides were made up at concentrations 10 fold higher than the required final working concentration, to allow for a 10 fold dilution on addition to the suspensions of spermatozoa.
# human spermatozoa [2] = assay: Percentage motility of spermatozoa exposed to NADPH; format: cell-based; settings: doses 0.625 to 10 mM, at least 3 hr
# human spermatozoa [3] = assay: Quantification of superoxide anion generation by SOD-inhibitable reduction of cytochrome C; format: cell-based; settings: 2 mM, n=5
# Method: Superoxide anion generation was quantified spectrophotometrically via the superoxide-dependent reduction of cytochrome C (McCord and Fridovich, 1969). Spermatozoa were used at an increased concentration of 10×10^7/ml in BWW supplemented with PVA (1 mg/ml). An aliquot (400 μl) of this sperm suspension was placed in a 1 ml disposable, plastic cuvette and 50 μl of cytochrome C (Type Vl from horse heart), was added to give a final working concentration of 100 μM. The reference cuvette contained the same ingredients, except that 50 μl of SOD was added to give final concentration of 196 U/ml. Absorbance was monitored at 550 nm and the SOD-inhibitable superoxide generation calculated using an extinction coefficient for reduced cytochrome C of ε=21.1 mM^−1cm^−1.
# [4] = test system: sperm, seminal plasma and serum; assay: Luminol/peroxidase-dependent chemiluminescence detection of quinone-induced H2O2; format: cell-based, human; settings: 50 μM
# Text: as §1
# Luminol alone measures H2O2; however when used alongside HRP, it can measure the production of H2O2 internally and externally. The sperm were prepared by standard percoll gradient and resuspended in seminal plasma or BWW/PVA to a concentration of 10 million cells per ml. […]
# HIV-1 = assay: Virucidal activity using cell-free virus (viral adhesion assay, syncytia in C8166 cells); format: cell-based
# Method: A simple, microtitre plate assay was developed (viral adhesion assay) in which the virus was attached to the solid phase by Pol-L-lysine Hydrobromide (PLL, Sigma). Sterile 24 and 96 well plates (Nunc) were coated for 1 hour with 50 μl of 50 μg/ml PLL at room temperature. When using 96 well microtitre plates the outer ring of wells were left uncoated and filled with 250 μl of sterile PBS to counteract the effects of evaporation. The coated wells were washed twice with sterile PBS using a Denley-4 plate washer. 25 μl of RPMI 1640 medium containing HIV-1 (50×TCID50) was added to the wells and incubated for 1 hour at room temperature. The plate was again washed twice with sterile PBS. 25 μl of varying concentrations of the candidate virucide were added to each well for 15 minutes and the virucide removed with two washes of sterile PBS. The T-lymphocyte cell line C8166, at a concentration of 4×10^4 cells in 300Fl RPMI 1640, were added to each well so that the cells formed a uniform monolayer on the adherent virus. After incubation for 72 hours, the number of syncytia in the monolayer gave an accurate measure of the amount of infectious virus present. Wells untreated with virucide were used as positive controls. […] The assay allowed the efficient removal of the candidate virucides or disinfectant and allowed the compound to be assessed for accurately determined contact times.
# spermatozoa = assay: Effect on lipid peroxidation in spermatozoa; format: cell-based, human; settings: exposure to compound vs control
# [5] = test system: spermatozoa in seminal plasma; assay: Lucigenin-dependent chemiluminescence detection of quinone-induced superoxide; format: cell-based, human; settings: increasing doses incl. 25 μM and 50 μM; FIG. 1b
# Text: as §1, with “A 4 μl aliquot of a 25 mM stock solution of either luminol or lucigenin m-dimethyl sulphoxide (DMSO), was then added to the cell suspension, resulting in a final probe concentration of 250 μM. For the measurement of hydrogen peroxide generation by intact cells, luminol-dependent chemiluminescence was enhanced by addition of 8 μl of HRP, freshly prepared at a concentration of 2 mg/ml in PBS, to give a final HRP concentration of 11.52 U/ml.” left out, “min). […]” for “min).”
# human sperm = assay: Effect of quinones on sperm motility; format: cell-based
# Method: Following the preparation of spermatozoa by standard Percoll gradient they were resuspended in homologous seminal plasma to a concentration of 20 million per ml, immediately prior to the beginning of the experiment. 50 μl of the sperm suspension was placed in an eppendorf tube, and the quinone was either added alone or in combination with other reagents, for example, KI, HRP (Horseradish Peroxidase), BHT (butylated hydroxytoluene) etc. depending on the experiment. The volume was made up to 100 μl with BWW/PVA.
# The quinone was always the final reagent to be added. […] The sample was gently agitated and 10 μl was placed on a slide and a motility was scored. The aim was to score a motility approximately 20 seconds following the addition of the quinone. There were two controls set up, one motility count taken at the beginning of the experiment (initial control) and one motility count taken at the end of the experiment (final control). The controls consisted of 50 μl of the sperm suspension followed by the addition of 50 μl BWW/PVA. The reason for having two controls was to observe if any changes in sperm motility had occurred simply as a factor of time, i.e. from residing in seminal plasma for a long duration. At all times during the experiment, the spermatozoa were incubated in a hot box at 24° C. All motility experiments were carried out on sperm suspended in seminal plasma unless otherwise stated.
compound,measurement,setting,value
"NC(=O)C1=CN([C@@H]2O[C@H](COP(=O)(O)OP(=O)(O)OC[C@H]3O[C@@H](n4cnc5c(N)ncnc54)[C@H](OP(=O)(O)O)[C@@H]3O)[C@@H](O)[C@H]2O)C=CC1 [NADPH, Dihydronicotinamide adenine dinucleotide phosphate]",lucigenin-dependent chemiluminescent response (superoxide anion generation),human spermatozoa [1]; 500 μM nucleotide,burst of ROS generation
same,increase in the chemiluminescent signal,"human spermatozoa [1]; addition to spermatozoa, lucigenin, FIG. 5a",10 fold
same,percentage motility of the spermatozoa,human spermatozoa [2],remained unchanged
same,superoxide generation rate during sudden burst,human spermatozoa [3],99.52+/−9.12 pmol.min^−1. 10^6 spermatozoa
same,superoxide release rate after stabilisation,human spermatozoa [3]; thereafter,7.65+/−0.97 pmol.min^−1. 10^6 spermatozoa
"O=C1C=CC(=O)c2ccccc21 [1,4-naphthoquinone]",H2O2 production in seminal plasma and serum,[4]; no spermatozoa,no such activity
same,"H2O2 production, spermatozoa in BWW",[4]; on addition of the reagent,instantaneous significant burst of H2O2
same,time of peak of slow secondary increase in H2O2 after initial exposure,[4]; spermatozoa in BWW,25 to 30 min
same,antiviral activity against HIV-1,"HIV-1; absence of human semen, 15 minutes contact",dose-dependent antiviral activity
same,"antiviral activity against HIV-1, effect of semen",HIV-1; presence of human semen vs absence,potentiated by an order of magnitude
same,lipid peroxidation in spermatozoa,spermatozoa,lipid peroxidation did not occur
same,superoxide burst generated by spermatozoa in seminal plasma,[5],Increasing doses of this compound led to a corresponding increase in superoxide production
same,mean motility score,"human sperm; 50 μM quinone, human sperm",0.143%
same,sperm immobilisation,human sperm; concentrations ranging from 25 μM to 100 μM,completely immobilised
same,IC50,"human sperm; human sperm in seminal plasma, motility scored approximately 20 seconds after addition, read-out: ID50, dose-dependent inhibition of sperm motility",~10 µM

# Reference: patent US6433022B1, “Spermicide” (Medical Research Council, priority 1997, dated 2002)
